Where “and” joins values, the source holds several entries; their conditions need not be identical. Identical values can stand only once.
Tests used:
[1] = test system: Huh7 cells; assay: Apoptosis analysis by Annexin V-PI flow cytometry; assay type: cell-based, human; conditions: for Cisplatin-induced apoptosis: cisplatin 5 μg/ml for 48 hrs; for 5-fluorouracil-induced apoptosis: 5-fluorouracil 150 µg/ml for 48 hrs; for STS-induced apoptosis: STS 1 μg/ml for 6 hrs
Procedure: Cells were treated with cisplatin (5 μg/ml) or 5-fluorouracil ([…]) for 48 hrs, apoptosis inducer staurosporin (STS, 1 μg/ml) for 6 hrs. Cells would then be subsequently harvested and stained in binding buffer, propidium iodide (PI) and FITC-conjugated Annexin V as provided by the Annexin-V FLUOS Staining Kit (Roche Diagnostics) according to manufacturer's instructions. Analysis was determined by a FACS Canto II (BD Biosciences) and FlowJo software (Tree Star, Inc.).
The effect of ANXA3 on resistance to apoptosis and chemotherapy was investigated by Annexin V-PI staining followed by flow cytometry analysis. To investigate whether ANXA3 expression in HCC confers enhanced resistance to chemotherapy and apoptosis, Huh7 cells with or without ANXA3 repressed were treated with the apoptosis inducer staurosporin (STS) or chemotherapeutic reagents, 5-fluorouracil (5-FU) or cisplatin, in vitro and analyzed for apoptotic/necrotic cells by flow cytometry. […] Upon stable ANXA3 knockdown in Huh7 and PLC8024 HCC cells, HCC cells became less resistant to the apoptosis inducer, staurosporin (STS) and chemotherapy, 5-fluorouracil and cisplatin, resulting in a significant increase in apoptotic/necrotic cells.

[2] = test system: HCC Huh7 cells or HCC primary cells; assay: Subcutaneous HCC xenograft treatment in NOD-SCID mice; assay type: in vivo
Procedure: Immunodeficient NOD-SCID mice transplanted subcutaneously with HCC Huh7 cells or HCC primary cells were injected with PBS, mouse IgG control ANXA3 mAb, cisplatin or a combination of ANXA3 mAb and cisplatin over a period of 3 weeks (FIGS. 4A, B and C).

[3] = Huh7 ANXA3 repressed clones (two clones, values not assigned)

N.N.[Cl][Pt][Cl] [cisplatin, reference compound]
Cisplatin-induced apoptosis [1, 3]: 38.4% and 41.1% | Cisplatin-induced apoptosis ([1]; Huh7 control (NTC) cells): 26.73% | tumor formation after serial transplantation of residual tumor into secondary mouse recipients ([2]; FIG. 4D): resulted in tumor formation and recurrence | tumor growth / tumor volume ([2]; NOD-SCID mice, subcutaneous transplant, injections over 3 weeks, FIG. 4A, B): marked reduction in tumor volume | CD133+ liver CSC subset in tumor ([2]; flow cytometric analysis of residual tumors, FIG. 4C): enriched

O=c1[nH]cc(F)c(=O)[nH]1 [5-fluorouracil]
5-fluorouracil-induced apoptosis [1, 3]: 39.4% and 55.51% | 5-fluorouracil-induced apoptosis ([1]; Huh7 control (NTC) cells): 30.1%

CN[C@@H]1C[C@H]2O[C@@](C)([C@@H]1OC)n1c3ccccc3c3c4c(c5c6ccccc6n2c5c31)C(=O)NC4 [STS, staurosporin]
STS-induced apoptosis [1, 3]: 53.58% and 52.3% | STS-induced apoptosis ([1]; Huh7 control (NTC) cells): 43.72%

Source: patent US10000558B2, “Use of annexin A3 as a diagnostic and prognostic biomarker and therapeutic target for treating hepatocellular carcinoma” (The University of Hong Kong, priority 2013, dated 2018)
